For assay [1], the system named is Aedes aegypti. Put plainly: Arm-in-cage repellent/deterrent bioassay on exposed human forearm (modified WHO protocol), Aedes aegypti. The class given is in vivo. On the procedure:
(§1) Candidate repellents and deterrents were bioassayed according to a modified protocol from the World Health Organization (1996). At least 1 hour prior to each bioassay, 75 host-seeking non blood-fed, nulliparous, 5- to 8-day-old female Aedes aegypti, Anopheles gambiae or Culex quinquefasciatus were placed into a wood-framed cage (26.5 cm on each side and 42.5 cm high) with a wooden floor, screened mesh sides and top, and a clear acrylic front fitted with a cotton stockinette sleeve (10 cm diameter). The test subject's arm was covered with an elbow-length polyethylene glove with an excised patch (16.6 cm long, 6 cm wide) to expose the ventral forearm of the test subject. Candidate deterrents were formulated in mineral (paraffin) oil and applied to the exposed forearm 5 min prior to inserting the arm into the cage. The inserted arm remained in the cage for 3 min every 30 min. Prior to each 3-min bioassay period, the hand of the untreated arm was inserted into the cage to ascertain that it received 10 bites within 30 sec as an indication of “biting pressure”.
(§2) The bioassay was terminated when the treated arm received ≧2 bites in one 3-min bioassay period or one bite in each of two consecutive bioassay periods. The time elapsed from experiment initiation to first bite was recorded as deterrent failure or complete protection time.
(§3) N,N-diethyl-m-toluamide formulated in ethanol at a corresponding dose served as a positive control, and mineral oil by itself served as a negative control. On each day, only one candidate compound was tested, ensuring that any residual material in the chamber had disappeared before the next bioassay.
To determine the repellence and deterrence of 8-allylsulfanyloctan-1-ol against Aedes aegypti, a 5%, 10% or 25% formulation of 8-allylsulfanyloctan-1-ol in mineral oil was applied in Experiments 1-3 at a dose of 1.5 mg (total composition) per cm^2 to the skin of the test person, and was bioassayed according to the protocol described under EXAMPLE 2. In Experiment 4, mineral oil by itself served as a negative control and was bioassayed at the same dose (1.5 mg per cm^2) as in Experiments 1-3. Each of Experiments 1-4 was replicated four times.
To compare the repellence and deterrence against Aedes aegypti caused by 8-allylsulfanyloctan-1-ol as a single active ingredient and by 8-allylsulfanyloctan-1-ol in combination with vanillin as a second active ingredient, we tested a 6.7% emulsion of vanillin (Experiment 14), a 6.7% emulsion of 8-allylsulfanyloctan-1-ol (Experiment 15), and a 13.4% emulsion of 8-allylsulfanyloctan-1-ol plus vanillin (1:1 ratio) (Experiment 16). 8-Allylsulfanyloctan-1-ol and vanillin were formulated in Emulsion No. 1 (see EXAMPLE 9). In each of Experiments […], test stimuli were applied at a dose of 1.5 mg per cm^2 to the skin of the test person, and were bioassayed according to the protocol described under EXAMPLE 2. In Experiment 17, Emulsion No. 1 served as a positive control and was tested at the same dose (1.5 mg per cm^2) as in Experiments 14-16.
To be able to compare the repellence and deterrence caused by N,N-diethyl-m-toluamide and by 8-allylsulfanyloctan-1-ol plus vanillin in Emulsion No. 1 (EXAMPLE 9), Experiment 26 tested a 6.7% formulation of N,N-diethyl-m-toluamide in ethanol (the best formulant for DEET) for protection from bites by Aedes egypti. In each replicate, a dose of 1.5 mg per […] was applied to the skin of the test person and bioassayed according to the protocol described under EXAMPLE 2.
To be able to further compare the deterrence caused by N,N-diethyl-m-toluamide with that caused by 8-allylsulfanyloctan-1-ol plus vanillin, Experiment 27 tested a 10.4% formulation of N,N-diethyl-m-toluamide in ethanol, and Experiment 28 tested 8-allylsulfanyloctan-1-ol (10.4%) plus vanillin (7.9%) in Emulsion No. 2 (EXAMPLE 10). […]

Assay [2] has as its system Culex quinquefasciatus. Put plainly: Arm-in-cage repellent/deterrent bioassay on exposed human forearm (modified WHO protocol), Culex quinquefasciatus. The class given is in vivo. Here is the method: as §1, §2, §3
To determine the repellence and deterrence of 8-allylsulfanyloctan-1-ol against Culex quinquefasciatus, a 2% and 5% or a 10% formulation of 8-allylsulfanyloctan-1-ol in mineral oil was applied in Experiments 9-11 at a dose of 1.5 mg per cm^2 to the skin of the test person, and was bioassayed according to the protocol described under EXAMPLE 2. In Experiment 12, mineral oil by itself served as a negative control and was tested at the same dose (1.5 mg per cm^2) as in Experiments […]. Each of Experiments 9-11 was replicated 4 times.
To compare the repellence and deterrence against Culex quinquefasciatus caused by 8-allylsulfanyloctan-1-ol as a single active ingredient and by 8-allylsulfanyloctan-1-ol in combination with vanillin as a second active ingredient, we tested a 6.7% emulsion of vanillin (Experiment 22), a 6.7% emulsion of 8-allylsulfanyloctan-1-ol (Experiment 23) and a 13.4% emulsion of 8-allylsulfanyloctan-1-ol plus vanillin (1:1 ratio) (Experiment 24). 8-Allylsulfanyloctan-1-ol and vanillin were formulated in Emulsion No. 1 (see EXAMPLE 9). In each of Experiments […], test stimuli were applied at a dose of 1.5 mg per cm^2 to the skin of the test person, and were bioassayed according to the protocol described under EXAMPLE 2. In Experiment 25, Emulsion No. 1 served as a positive control and was tested at the same dose (1.5 mg per cm^2) as in Experiments 22-24. Each of Experiments 22-25 was replicated three times.

Take `C=CCSCCCCCCCCO` [Compound 24, 8-allylsulfanyloctan-1-ol]: the “protection from bites, average duration” value in assay [1] (5% formulation in mineral oil, 1.5 mg per cm^2, Experiment 1) is 52 min; in assay [1] (6.7% single active in Emulsion No. 1, 1.5 mg per cm^2, Experiments 14, 15) it was 77 min; in assay [1] (10% formulation in mineral oil, 1.5 mg per cm^2, Experiment 2), 157 min; in assay [1] (25% formulation in mineral oil, 1.5 mg per cm^2, Experiment 3), 305 min; in assay [2] (2% formulation in mineral oil, 1.5 mg per cm^2, Experiment 9), 198 min; in assay [2] (5% formulation in mineral oil, 1.5 mg per cm^2, Experiment 10), 319 min. The “protection from bites, average duration” value in assay [2] (6.7% single active in Emulsion No. 1 (FIG. 9 legend: 2.0%), 1.5 mg per cm^2, Experiments 22, 23) stood at 242 min; in assay [2] (10% formulation in mineral oil, 1.5 mg per cm^2, Experiment 11) it was 495 min. The “protection status when experiment was terminated after eight hours” value in assay [2] (10% formulation in mineral oil, Experiment 11, each of the three replicates) is on record as “complete protection against bites”.

The values are drawn from patent publication US8889731B2, “Compounds, compositions and methods for repelling blood-feeding arthropods and deterring their landing and feeding” (Contech Enterprises Inc., priority 2007, dated 2014).
